Reference: ChEMBL document CHEMBL5543095 (Eur J Med Chem, 2024)
The source made the active and inactive calls. The calls are words filed in the database; no cut-off is given here.

Assays:
[1] = tested on: U-87 MG; test: Antiproliferative activity against human U87 cells assessed as inhibition of cell growth inhibition incubated for 48 hrs by CCK-8 assay; type: functional, cell-based, U-87MG ATCC
[2] = tested on: Huh-7; test: Antiproliferative activity against human Huh-7 cells assessed as inhibition of cell growth inhibition incubated for 48 hrs by CCK-8 assay; type: functional, cell-based; conditions: Huh-7, 48 h
[3] = Cytotoxicity against HUVEC cells assessed as inhibition of cell growth inhibition incubated for 48 hrs by CCK-8 assay; type: toxicity, cell-based; conditions: human
[4] = tested on: U-87 MG; test: Induction of cell cycle arrest in human U87 cells assessed as accumulation of cells at G1 phase at 0.5 uM measured after 48 hrs by PI staining based flow cytometry analysis (reference value: 72.6%); type: functional, U-87MG ATCC
[5] = tested on: U-87 MG; test: Induction of cell cycle arrest in human U87 cells assessed as accumulation of cells at G1 phase at 2 uM measured after 48 hrs by PI staining based flow cytometry analysis (reference value: 72.6%); type: functional, U-87MG ATCC
[6] = tested on: U-87 MG; test: Induction of cell cycle arrest in human U87 cells assessed as accumulation of cells at […] at 2 uM measured after 48 hrs by PI staining based flow cytometry analysis (reference value: 8.55%); type: functional, U-87MG ATCC
[7] = tested on: U-87 MG; test: Induction of cell cycle arrest in human U87 cells assessed as accumulation of cells at […] at 4 uM measured after 48 hrs by PI staining based flow cytometry analysis (reference value: 8.55%); type: functional, U-87MG ATCC
[8] = tested on: U-87 MG; test: Inhibition of cell migration in human U87 cells assessed as reduction in wound healing measured after 24 to 48 hrs by scratch assay; type: functional, cell-based; conditions: U-87MG ATCC, dose 0-1 µM, time 24-48 hrs
[9] = tested on: U-87 MG; test: Induction of apoptosis in human U87 cells assessed as late apoptotic cells at 0.3125 uM incubated for 48 hrs by Annexin V-FITC/PI staining based flow cytometry analysis (reference value: 2.08%); type: functional, U-87MG ATCC
[10] = tested on: U-87 MG; test: Induction of apoptosis in human U87 cells assessed as dead cells at 0.3125 uM incubated for 48 hrs by Annexin V-FITC/PI staining based flow cytometry analysis (reference value: 0.013%); type: functional, U-87MG ATCC
[11] = tested on: U-87 MG; test: Induction of apoptosis in human U87 cells assessed as live cells at 0.625 uM incubated for 48 hrs by Annexin V-FITC/PI staining based flow cytometry analysis (reference value: 91.7%); type: functional, U-87MG ATCC
[12] = tested on: U-87 MG; test: Induction of apoptosis in human U87 cells assessed as early apoptotic cells at 0.625 uM incubated for 48 hrs by Annexin V-FITC/PI staining based flow cytometry analysis (reference value: 6.25%); type: functional, U-87MG ATCC
[13] = tested on: U-87 MG; test: Induction of apoptosis in human U87 cells assessed as live cells at 1.25 uM incubated for 48 hrs by Annexin V-FITC/PI staining based flow cytometry analysis (reference value: 91.7%); type: functional, U-87MG ATCC
[14] = tested on: U-87 MG; test: Induction of apoptosis in human U87 cells assessed as early apoptotic cells at 1.25 uM incubated for 48 hrs by Annexin V-FITC/PI staining based flow cytometry analysis (reference value: 6.25%); type: functional, U-87MG ATCC
[15] = tested on: U-87 MG; test: Induction of apoptosis in human U87 cells assessed as late apoptotic cells at 1.25 uM incubated for 48 hrs by Annexin V-FITC/PI staining based flow cytometry analysis (reference value: 2.08%); type: functional, U-87MG ATCC
[16] = tested on: U-87 MG; test: Induction of apoptosis in human U87 cells assessed as early apoptotic cells at 2.5 uM incubated for 48 hrs by Annexin V-FITC/PI staining based flow cytometry analysis (reference value: 6.25%); type: functional, U-87MG ATCC
[17] = tested on: U-87 MG; test: Induction of apoptosis in human U87 cells assessed as late apoptotic cells at 2.5 uM incubated for 48 hrs by Annexin V-FITC/PI staining based flow cytometry analysis (reference value: 2.08%); type: functional, U-87MG ATCC
[18] = tested on: U-87 MG; test: Induction of apoptosis in human U87 cells assessed as dead cells at 2.5 uM incubated for 48 hrs by Annexin V-FITC/PI staining based flow cytometry analysis (reference value: 0.013%); type: functional, U-87MG ATCC
[19] = tested on: GL261-Luc; test: Antitumor activity against mouse GL261-Luc cells implanted in C57BL/6 mouse assessed as reduction in tumor cell growth at 10 mg/kg, iv administered every other day on day 0,2,4,6,8,10 and measured after 12 days by H and E staining based analysis; type: functional, organism-based; conditions: time 12.0 day
[20] = tested on: GL261-Luc; test: Antivascular activity against mouse GL261-Luc cells implanted in C57BL/6 mouse assessed as reduction in tumor microvessel density at 5 to 10 mg/kg, iv administered every other day on day 0,2,4,6,8,10 and measured after 12 days by IHC staining based analysis; type: functional, organism-based; conditions: dose 5-10 mg/kg, time 12.0 day
[21] = Toxicity in C57BL/6 mouse implanted with mouse GL261-Luc cells assessed as histopathological changes in heart at 5 to 10 mg/kg, iv administered every other day on day 0,2,4,6,8,10 and measured after 12 days by H and E staining based analysis; type: organism-based; conditions: in vivo, 288 h, dose 5-10 mg/kg, time 12 day
[22] = Toxicity in C57BL/6 mouse implanted with mouse GL261-Luc cells assessed as histopathological changes in spleen at 5 to 10 mg/kg, iv administered every other day on day 0,2,4,6,8,10 and measured after 12 days by H and E staining based analysis; type: organism-based; conditions: in vivo, 288 h, dose 5-10 mg/kg, time 12 day
[23] = Toxicity in C57BL/6 mouse implanted with mouse GL261-Luc cells assessed as histopathological changes in kidney at 5 to 10 mg/kg, iv administered every other day on day 0,2,4,6,8,10 and measured after 12 days by H and E staining based analysis; type: organism-based; conditions: in vivo, 288 h, dose 5-10 mg/kg, time 12 day
[24] = Apparent permeability across apical to basolateral side in MDCK-MDR1 cells at 10 uM incubated for 90 mins by LC-MS/MS analysis; type: ADME, cell-based, Canis lupus familiaris; conditions: dog
[25] = Apparent permeability across basolateral to apical side in MDCK-MDR1 cells at 10 uM incubated for 90 mins by LC-MS/MS analysis; type: ADME, cell-based, Canis lupus familiaris; conditions: dog
[26] = tested on: P-gp; test: Substrate activity at P-gp in MDCK-MDR1 cells assessed as efflux ratio of apparent permeability across basolateral to apical side over apical to basolateral side at 10 uM incubated for 90 mins by LC-MS/MS analysis; type: ADME, cell-based, Canis lupus familiaris; conditions: dog
[27] = tested on: U-87MG ATCC; test: Downregulation of TUBA1A gene expression in human U87 cells by transcriptome analysis; type: functional, cell-based
[28] = tested on: U-87MG ATCC; test: Downregulation of TUBB gene expression in human U87 cells by transcriptome analysis; type: functional, cell-based
[29] = tested on: U-87MG ATCC; test: Downregulation of TUBB4B gene expression in human U87 cells by transcriptome analysis; type: functional, cell-based
[30] = tested on: U-87MG ATCC; test: Upregulation of CGNL1 gene expression in human U87 cells by transcriptome analysis; type: functional, cell-based
[31] = target: T1, Tubulin (Homo sapiens) (UniProt P68371+Q9H4B7+P0DPH7+P68366+Q13509+Q71U36+P04350+Q3ZCM7+P07437+P68363+Q9BQE3+Q6PEY2+Q13885+Q9BVA1+Q9BUF5); test: Inhibition of tubulin (unknown origin) polymerization assessed as reduction in steady state content of tubulins at 6 to 12 uM by fluorescence based analysis; type: protein-complex assay; conditions: dose 6-12 µM
[32] = target: T1, Tubulin (Homo sapiens); test: Binding affinity to colchicine binding site of tubulin in human U87 cells assessed as inhibition of EBI-tubulin adduct formation by measuring disappearance of adduct bands pretreated for 2 hrs followed by EBI addition and measured after 2 hrs by Western blot analysis; type: cell-based; conditions: dose 10-100 µM, time 4.0 hrs

With `Cc1ccc2ccc3c(c2n1)OC(N)=C(C#N)C3c1ccccc1` (configuration not stated) the IC50 [1] was 900 nM, the IC50 [2] was 1190 nM and the IC50 at 48 h [3] was over 10000 nM. The Activity [4] was 72%, the Activity [5] was 14.4% and the Activity [6] was 56.2%. For the same compound, the Activity [7] was 59.3%, the inhibition [8] was “Dose-Dependent Effect” and the Activity [9] was 4.87%. The Activity [10] was 0.019%, the Activity [11] was 75.9% and the Activity [12] was 16.1%. The Activity [13] was 73.9%, the Activity [14] was 21.2% and the Activity [15] was 7.82%. The Activity [16] was 20.6%, the Activity [17] was 16.8% and the Activity [18] was 0.1%. The Activity [19] was “Active”, the Activity [20] was “Active” and the Activity [21] was “Non-Toxic”. The Activity [22] was “Non-Toxic”, the Activity [23] was “Non-Toxic” and the Papp A→B at 1.5 h, 10 µM [24] was 33.7 ×10⁻⁶ cm/s. For the same compound, the Papp B→A at 1.5 h, 10 µM [25] was 25.8 ×10⁻⁶ cm/s, the efflux ratio at 1.5 h, 10 µM [26] was 0.76 and the Activity [27] was “Active”. The Activity [28] was “Active”, the Activity [29] was “Active” and the Activity [30] was “Active”. The inhibition [31] was “Active” and the Activity [32] was “Dose-Dependent Effect”.
